# Patent EP4616862A1, “ANTIVIRAL C[…] DERIVED FROM NUCLEIC ACID AND PHARMACEUTICALLY ACCEPTABLE SALTS THEREOF” (priority 2022, dated 2024)
# Where two headings read alike, the source gives them in different places.
# What was measured:
# [1] = tested on: African Swine Fever Virus (ASFV, China/2018/AnhuiXCGQ); test: microbe, parasite or virus in culture; assay type: cell-based; conditions: for IC50: African swine fever virus
# [2] = tested on: Classical Swine Fever Virus (CSFV); test: microbe, parasite or virus in culture; assay type: cell-based; conditions: for IC50: Classical swine fever virus
# [3] = tested on: Low pathogenic avian influenza virus (LPAIV, H9N2); test: microbe, parasite or virus in culture; assay type: cell-based; conditions: for IC50: unidentified influenza virus, H9N2, MDCK
# [4] = tested on: Canine coronavirus (CCoV); test: microbe, parasite or virus in culture; assay type: cell-based
# Canine adenovirus (CAV) = test: CAV infection inhibition in Vero cells (qPCR of viral DNA); assay type: cell-based; conditions: for SI (selectivity index): CC50/IC50; for IC50: Canine mastadenovirus A, Vero cell line
# [5] = tested on: Canine distemper virus (CDV); test: microbe, parasite or virus in culture; assay type: cell-based; conditions: for IC50: canine distemper virus, Vero
# Feline parvovirus (FPV) = test: microbe, parasite or virus in culture; assay type: cell-based; conditions: for IC50: Feline parvovirus, CRFK
# Feline Calicivirus (FCV) = test: microbe, parasite or virus in culture; assay type: cell-based; conditions: for IC50: Feline calicivirus, CRFK
# FIPV = FIPV infection inhibition in FCWF-4 cells (RT-qPCR); assay type: cell-based, Feline Infectious peritonitis virus; conditions: for IC50: FCWF-4 cell line; for SI (selectivity index): CC50/IC50
# [6] = tested on: foot and mouth disease virus (FMDV); test: microbe, parasite or virus in culture; assay type: cell-based; conditions: for IC50: Foot-and-mouth disease virus
# [7] = Cytotoxicity (CCoV example); assay type: cell-based, canine; conditions: Table 4 (CCoV), cell line for cytotoxicity not given
# [8] = Cytotoxicity (CAV example); assay type: cell-based, monkey; conditions: Table 5 (CAV), cell line for cytotoxicity not given
# [9] = Cytotoxicity (CDV example); assay type: cell-based, monkey; conditions: Table 6 (CDV), cell line for cytotoxicity not given
# [10] = Cytotoxicity (FPV example); assay type: cell-based, feline; conditions: Table 7 (FPV), cell line for cytotoxicity not given
# [11] = Cytotoxicity (FCV example); assay type: cell-based, feline; conditions: Table 8 (FCV), cell line for cytotoxicity not given
# [12] = Cytotoxicity (FIPV example); assay type: cell-based, feline; conditions: Table 9 (FIPV), cell line for cytotoxicity not given
# ISG15 = assay type: cell-based, Pig
# Mx1 = assay type: cell-based, Pig
# RNaseL = assay type: cell-based, Pig
# in vitro [13] = test: in vitro
# in vitro [14] = test: in vitro; remark: listed apart in the source
# in vitro [15] = test: in vitro; remark: listed apart in the source
# in vitro [16] = test: in vitro; remark: listed apart in the source
# [17] = 48 h, read-out: IC50 (ASFV infection inhibition concentration)
# [18] = PK-15, 48 h, read-out: IC50 (CSFV infection inhibition concentration)
# [19] = 48 h, read-out: IC50 (LPAIV infection inhibition concentration)
# [20] = Alphacoronavirus 1, A-72, 48 h, read-out: IC50 (CCoV infection inhibition concentration)
# [21] = 48 h, CAV 100 TCID50/well, simultaneous treatment, 2 days, qPCR, read-out: IC50 (CAV infection inhibition concentration)
# [22] = 72 h, read-out: IC50 (CDV infection inhibition concentration)
# [23] = 48 h, read-out: IC50 (FPV infection inhibition concentration)
# [24] = 24 h, read-out: IC50 (FCV infection inhibition concentration)
# [25] = Alphacoronavirus 1, 48 h, FIPV 100 TCID50/well, simultaneous treatment, 2 days, RT-qPCR, read-out: IC50 (FIPV infection inhibition concentration)
# [26] = BHK-21, 36 h, read-out: IC50 (FMDV infection inhibition concentration)
Compound,SI (selectivity index) [1],"IC50 [1, 17]",SI (selectivity index) [2],"IC50 [2, 18]","IC50 [3, 19]",SI (selectivity index) [4],"IC50 [4, 20]",SI (selectivity index) (Canine adenovirus (CAV); CAV),IC50 (Canine adenovirus (CAV); [21]),SI (selectivity index) [5],"IC50 [5, 22]",SI (selectivity index) (Feline parvovirus (FPV)),IC50 (Feline parvovirus (FPV); [23]),SI (selectivity index) (Feline Calicivirus (FCV)),IC50 (Feline Calicivirus (FCV); [24]),IC50 (FIPV; [25]),SI (selectivity index) (FIPV; FIPV),Fold change (multiple increase compared to control group) ISG15 (ISG15),Fold change (multiple increase compared to control group) Mx1 (Mx1),Fold change (multiple increase compared to control group) RNaseL (RNaseL),further results
"Nc1nc2c(ncn2[C@@H](CO)OC(CO)CO)c(=O)[nH]1 [Acyclic diol-Guanosine, acyclic diol form of guanosine]",> 37.0,< 270 µM,> 2.8,< 3610 µM,< 1340 µM,> 4.5,< 2240 µM,> 2.4,< 4130 µM,> 4.7,< 2120 µM,> 1.9,< 530 µM,> 75.1,< 133 µM,< 1510 µM,> 6.6,4.2 (±1.5),4.0 (±1.2),3.0 (±0.8),"SI (selectivity index) [6]: > 4.9; IC50 [6, 26]: < 2060 µM; CC50 ([7]; dog, a-72 cells): > 10000 µM; CC50 ([8]; monkey, vero cells): > 10000 µM; CC50 ([9]; monkey, vero cells): > 10000 µM; CC50 ([10]; cat, crfk cells): > 10000 µM; CC50 ([11]; cat, crfk cells): > 10000 µM; CC50 ([12]; cat, fcwf-4 cells): > 10000 µM; CC50 (in vitro [13]; pig, pam cells): > 10000 µM; CC50 (in vitro [14]; pig, pk15 cells): > 10000 µM; CC50 (in vitro [15]; dog, mdck): > 10000 µM; CC50 (in vitro [16]; hamster, bhk-21 cells): > 10000 µM"
"O=c1[nH]cnc2c1ncn2[C@@H](CO)OC(CO)CO [Acyclic diol-Inosine, acyclic diol form of inosine]",> 28.3,< 353 µM,> 5.7,< 1750 µM,< 1810 µM,> 7.9,< 1270 µM,> 5.6,< 1780 µM,> 3.7,< 2700 µM,> 5.4,< 1870 µM,> 27.6,< 362 µM,< 872 µM,> 11.5,6.3 (±0.4),2.8 (±0.9),2.0 (±0.3),"SI (selectivity index) [6]: > 8.3; IC50 [6, 26]: < 1200 µM; CC50 ([7]; dog, a-72 cells): > 10000 µM; CC50 ([8]; monkey, vero cells): > 10000 µM; CC50 ([9]; monkey, vero cells): > 10000 µM; CC50 ([10]; cat, crfk cells): > 10000 µM; CC50 ([11]; cat, crfk cells): > 10000 µM; CC50 ([12]; cat, fcwf-4 cells): > 10000 µM; CC50 (in vitro [13]; pig, pam cells): > 10000 µM; CC50 (in vitro [14]; pig, pk15 cells): > 10000 µM; CC50 (in vitro [15]; dog, mdck): > 10000 µM; CC50 (in vitro [16]; hamster, bhk-21 cells): > 10000 µM"
"O=c1[nH]c(=O)c2ncn([C@@H](CO)OC(CO)CO)c2[nH]1 [Acyclic diol-Xanthosine, acyclic diol form of xanthosine]",> 8.6,< 1160 µM,> 3.4,< 2960 µM,< 2000 µM,> 3.8,< 2600 µM,> 7.4,< 1350 µM,> 4.9,< 2050 µM,> 1.7,< 5750 µM,> 64.5,< 155 µM,< 1020 µM,> 9.8,4.7 (±1.3),2.7 (±1.4),1.7 (±0.3),"SI (selectivity index) [6]: > 5.0; IC50 [6, 26]: < 2000 µM; CC50 ([7]; dog, a-72 cells): > 10000 µM; CC50 ([8]; monkey, vero cells): > 10000 µM; CC50 ([9]; monkey, vero cells): > 10000 µM; CC50 ([10]; cat, crfk cells): > 10000 µM; CC50 ([11]; cat, crfk cells): > 10000 µM; CC50 ([12]; cat, fcwf-4 cells): > 10000 µM; CC50 (in vitro [13]; pig, pam cells): > 10000 µM; CC50 (in vitro [14]; pig, pk15 cells): > 10000 µM; CC50 (in vitro [15]; dog, mdck): > 10000 µM; CC50 (in vitro [16]; hamster, bhk-21 cells): > 10000 µM"
"Nc1nc2c(ncn2[C@@H](C=O)O[C@@H](C=O)CO)c(=O)[nH]1 [Dialdehyde-Guanosine, dialdehyde form of guanosine]",> 75.9,< 79 µM,> 36.1,< 165 µM,< 102 µM,> 54.7,< 110 µM,> 69.8,< 85.9 µM,> 46.5,< 129 µM,> 158,< 38 µM,> 329.7,< 18.2 µM,< 52.8 µM,> 113.7,4.7 (±0.3),3.5 (±0.7),2.5 (±0.1),"IC50 [1]: 79 µM; IC50 [3]: 102 µM; IC50 ([4]; Alphacoronavirus 1, A-72): 110 µM; IC50 (Canine adenovirus (CAV); CAV, read-out: IC50): 85.9 µM; IC50 (Feline Calicivirus (FCV)): 18.2 µM; SI (selectivity index) [6]: > 52.3; IC50 ([6]; BHK-21): 115 µM; IC50 [6, 26]: < 115 µM; CC50 ([7]; dog, a-72 cells): > 6000 µM; CC50 ([8]; monkey, vero cells): > 6000 µM; CC50 ([9]; monkey, vero cells): > 6000 µM; CC50 ([10]; cat, crfk cells): > 6000 µM; CC50 ([11]; cat, crfk cells): > 6000 µM; CC50 ([12]; cat, fcwf-4 cells): > 6000 µM; CC50 (in vitro [13]; pig, pam cells): > 6000 µM; CC50 (in vitro [14]; pig, pk15 cells): > 6000 µM; CC50 (in vitro [15]; dog, mdck): > 6000 µM; CC50 (in vitro [16]; hamster, bhk-21 cells): > 6000 µM"
"O=C[C@@H](CO)O[C@H](C=O)n1cnc2c(=O)[nH]cnc21 [Dialdehyde-Inosine, dialdehyde form of inosine]",> 103.5,< 96.6 µM,> 42.0,< 238 µM,< 268 µM,> 221.7,< 45.1 µM,> 30.7,< 326 µM,> 93.9,< 106 µM,> 192,< 52 µM,> 384.6,< 26 µM,< 45.5 µM,> 219.9,4.0 (±0.6),3.5 (±1.1),3.0 (±0.2),"SI (selectivity index) [3]: > 37.4; IC50 ([4]; Alphacoronavirus 1, A-72): 45.1 µM; IC50 (FIPV; Alphacoronavirus 1, FIPV, read-out: IC50): 45.5 µM; SI (selectivity index) [6]: > 22.9; IC50 [6, 26]: < 436 µM; CC50 [7]: > 10000 µM; CC50 [8]: > 10000 µM; CC50 [9]: > 10000 µM; CC50 [10]: > 10000 µM; CC50 [11]: > 10000 µM; CC50 [12]: > 10000 µM; CC50 (in vitro [13]): > 10000 µM; CC50 (in vitro [14]): > 10000 µM; CC50 (in vitro [15]): > 10000 µM; CC50 (in vitro [16]): > 10000 µM"
"O=C[C@@H](CO)O[C@H](C=O)n1cnc2c(=O)[nH]c(=O)[nH]c21 [Dialdehyde-Xanthosine, dialdehyde form of xanthosine]",> 90.9,< 110 µM,> 63.8,< 157 µM,< 222 µM,> 232.6,< 43 µM,> 77.2,< 130 µM,> 125.1,< 79.9 µM,> 258,< 31 µM,> 398.0,< 20.1 µM,< 55.1 µM,> 181.4,4.5 (±0.4),3.5 (±1.0),3.4 (±0.2),"IC50 ([2]; PK-15): 157 µM; SI (selectivity index) [3]: > 45.1; IC50 ([4]; Alphacoronavirus 1, A-72): 43 µM; IC50 [5]: 79.9 µM; IC50 (Feline parvovirus (FPV)): 31 µM; CC50 [7]: > 10000 µM; CC50 [8]: > 10000 µM; CC50 [9]: > 10000 µM; CC50 [10]: > 8000 µM; CC50 [11]: > 8000 µM; CC50 [12]: > 10000 µM; CC50 (in vitro [13]): > 10000 µM; CC50 (in vitro [14]): > 10000 µM; CC50 (in vitro [15]): > 10000 µM"
